Columns and labels:
[1] = test system: chickweed (Stellaria media); assay: Postemergence herbicidal activity; type: in vivo; details: Table 1, visual, after 2 weeks; for pest or weed control at 125 ppm / pest or weed control at 250 ppm: Stellaria media, post-emergence, 336 h, read-out: Post-emergent % Control STEME; for pest or weed control at 125 ppm: rate 125 ppm
Protocol: (§1) Seeds of the desired test plant species were planted in Grace-Sierra MetroMix® 306 planting mixture, which typically has a pH of 6.0 to 6.8 and an organic matter content of about 30 percent, in plastic pots with a surface area of 64 square centimeters. When required to ensure good germination and healthy plants, a fungicide treatment and/or other chemical or physical treatment was applied. The plants were grown for 7-21 days in a greenhouse with an approximate 15 hr photoperiod which was maintained at about 23-29° C. during the day and 22-28° C. during the night. Nutrients and water were added on a regular basis and supplemental lighting was provided with overhead metal halide 1000-Watt lamps as necessary. The plants were employed for testing when they reached the first or second true leaf stage.
(§2) A weighed amount, determined by the highest rate to be tested, of each test compound was placed in a 20 mL glass vial and was dissolved in 4 mL of a 97:3 v/v (volume/volume) mixture of acetone and dimethyl sulfoxide (DMSO) to obtain concentrated stock solutions. […] The concentrated stock solutions obtained were diluted with an aqueous mixture containing acetone, water, isopropyl alcohol, DMSO, Atplus 411F crop oil concentrate, and Triton X-155 surfactant in a 48.5:39:10:1.5:1.0:0.02 v/v ratio to obtain spray solutions of known concentration. The solutions containing the highest concentration to be tested were prepared by diluting 2 mL aliquots of the stock solution with 13 mL of the mixture and lower concentrations were prepared by serial dilution of the stock solution. Approximately 1.5 mL aliquots of each solution of known concentration were sprayed evenly onto each of the test plant pots using a DeVilbiss atomizer driven by compressed air pressure of 2 to 4 psi ([…]) to obtain thorough coverage of each plant. Control plants were sprayed in the same manner with the aqueous mixture. In this test an application rate of 1 ppm results in the application of approximately 1 g/Ha.
(§3) The treated plants and control plants were placed in a greenhouse as described above and watered by sub-irrigation to prevent wash-off of the test compounds. After 2 weeks the condition of the test plants as compared with that of the untreated plants was determined visually and scored on a scale of 0 to 100 percent where 0 corresponds to no injury and 100 corresponds to complete kill.

[2] = test system: cocklebur (Xanthium strumarium); assay: Postemergence herbicidal activity; type: in vivo; details: Table 1, visual, after 2 weeks; for pest or weed control at 125 ppm / pest or weed control at 250 ppm: Xanthium strumarium, post-emergence, 336 h, read-out: Post-emergent % Control XANST; for pest or weed control at 125 ppm: rate 125 ppm
Protocol: as §1, §2, §3

[3] = test system: wild buckwheat (Polygonum convolvulus); assay: Postemergence herbicidal activity; type: in vivo; details: Table 1, visual, after 2 weeks; for pest or weed control at 125 ppm / pest or weed control at 250 ppm: Fallopia convolvulus, post-emergence, 336 h, read-out: Post-emergent % Control POLCO; for pest or weed control at 125 ppm: rate 125 ppm
Protocol: as §1, §2, §3

[4] = test system: morningglory (Ipomoea hederacea); assay: Preemergence herbicidal activity; type: in vivo; details: Table 6 (headed Post-emergent; text: preemergence), after 3 weeks; for pest or weed control at 280 ppm: rate 280 ppm
Description: (§4) Seeds of the desired test plant species were planted in a soil matrix prepared by mixing a loam soil (43 percent silt, 19 percent clay, and 38 percent sand, with a pH of about 8.1 and an organic matter content of bout 1.5 percent) and sand in a 70 to 30 ratio. The soil matrix was contained in plastic pots with a surface area of 113 square centimeters. When required to ensure good germination and healthy plants. a fungicide treatment and/or other chemical or physical treatment was applied.
(§5) A weighed amount, determined by the highest rate to be tested, of each test compound was placed in a 20 mL glass vial and was dissolved in 4 mL of a 97:3 v/v (volume/volume) mixture of acetone and dimethyl sulfoxide to obtain concentrated stock solutions. […] The stock solutions obtained were diluted with a 99.9:0.1 mixture of water and Tween® […] surfactant to obtain application solutions of known concentration. The solutions containing the highest concentration to be tested were prepared by diluting 2 mL aliquots of the stock solution with 15 mL of the mixture and lower concentrations were prepared by serial dilution of the stock solution. A 2.5 mL aliquot of each solution of known concentration was sprayed evenly onto the soil surface (113 sq. cm) of each seeded pot using a Cornwall 5.0 mL glass syringe fitted with a TeeJet TN-3 hollow cone nozzle to obtain thorough coverage of the soil in each pot. Control pots were sprayed in the same manner with the aqueous mixture.
(§6) The treated pots and control pots were placed in a greenhouse maintained with an approximate 15 hr photoperiod and temperatures of about 23-29° C. during the day and 22-28° C. during the night. Nutrients and water were added on a regular basis and supplemental lighting was provided with overhead metal halide 1000-Watt lamps as necessary. The water was added by top-irrigation. After 3 weeks the condition of the test plants that germinated and grew as compared with that of the untreated plants that germinated and grew was determined visually and scored on a scale of 0 to 100 percent where 0 corresponds to no injury and 100 corresponds to complete kill or no germination.

[5] = test system: pigweed (Amaranthus retroflexus); assay: Preemergence herbicidal activity; type: in vivo; details: Table 6 (headed Post-emergent; text: preemergence), after 3 weeks; for pest or weed control at 280 ppm: rate 280 ppm
Description: as §4, §5, §6

[6] = test system: velvetleaf (Abutilon theophrasti); assay: Preemergence herbicidal activity; type: in vivo; details: Table 6 (headed Post-emergent; text: preemergence), after 3 weeks; for pest or weed control at 280 ppm: rate 280 ppm
Description: as §4, §5, §6

[7] = Ipomoea, 504 h, rate 560 ppm, read-out: % Control IPOHE
[8] = Amaranthus retroflexus, 504 h, rate 560 ppm, read-out: % Control AMARE
[9] = Abutilon theophrasti, 504 h, rate 560 ppm, read-out: % Control ABUTH
[10] = Ipomoea, 504 h, read-out: % Control IPOHE
[11] = Amaranthus retroflexus, 504 h, read-out: % Control AMARE
[12] = Abutilon theophrasti, 504 h, read-out: % Control ABUTH

Compound | pest or weed control at 560 ppm [4, 7] [%] | pest or weed control at 560 ppm [5, 8] [%] | pest or weed control at 560 ppm [6, 9] [%] | melting point | pest or weed control at 250 ppm ([1]; rate 250 ppm) [%] | pest or weed control at 250 ppm ([2]; rate 250 ppm) [%] | pest or weed control at 250 ppm ([3]; rate 250 ppm) [%] | also measured
NC(=O)c1nc(Cl)cc(N)c1Cl [Compound 11, 4-Amino-3,6-dichloropyridine-2-carboxamide] | 85 | 0 | 85 | 240 to 241 °C |  |  |  | pest or weed control at 125 ppm [1]: 85%; pest or weed control at 125 ppm [2]: 80%; pest or weed control at 125 ppm [3]: 95%
CCCCC(CC)COC(=O)c1nc(Cl)cc(N)c1Cl (centres unmarked) [Compound 2, 2-Ethylhexyl 4-amino-3,6-dichloropyridine-2-carboxylate] |  |  |  | 55 °C | 80 | 95 | 100 | pest or weed control at 280 ppm [4, 10]: 100%; pest or weed control at 280 ppm [5, 11]: 100%; pest or weed control at 280 ppm [6, 12]: 100%
Nc1cc(Cl)nc(C(=O)O)c1Br [Compound 44, 4-Amino-3-bromo-6-chloropyridine-2-carboxylic acid] | 100 | 100 | 100 | 175 °C (dec.) |  |  |  | pest or weed control at 125 ppm [1]: 90%; pest or weed control at 125 ppm [2]: 90%; pest or weed control at 125 ppm [3]: 95%
Nc1cc(Oc2cc(Cl)cc(Cl)c2)nc(C(=O)O)c1Cl [Compound 47, 4-Amino-3-chloro-6-(3,5-dichlorophenoxy)pyridine-2-carboxylic acid] |  |  |  | 196 °C | 100 | 100 | 100 | pest or weed control at 280 ppm [4, 10]: 0%; pest or weed control at 280 ppm [5, 11]: 100%; pest or weed control at 280 ppm [6, 12]: 95%
Nc1cc(Oc2ccccc2)nc(C(=O)O)c1Cl [Compound 48, 4-amino-3-chloro-6-phenoxypyridine-2-carboxylic acid] |  |  |  | 178 °C | 60 | 100 | 100 | pest or weed control at 280 ppm [4, 10]: 100%; pest or weed control at 280 ppm [5, 11]: 30%; pest or weed control at 280 ppm [6, 12]: 100%
Nc1cc(Oc2cccc(Cl)c2)nc(C(=O)O)c1Cl [Compound 53, 4-amino-3-chloro-6-(3-chlorophenoxy)-pyridine-2-carboxylic acid] | 100 | 0 | 100 | 176 °C | 100 | 100 | 100 | 
Nc1c(Cl)c(C(=O)O)nc(C(F)(F)F)c1Cl [Compound 45, 4-Amino-3,5-dichloro-6-trifluoromethylpyridine-2-carboxylic acid] |  |  |  | 178 °C (dec.) | 0 | 90 | 80 | pest or weed control at 125 ppm ([4]; Ipomoea, 504 h, rate 125 ppm, read-out: % Control IPOHE): 100%; pest or weed control at 125 ppm ([5]; Amaranthus retroflexus, 504 h, rate 125 ppm, read-out: % Control AMARE): 100%; pest or weed control at 125 ppm ([6]; Abutilon theophrasti, 504 h, rate 125 ppm, read-out: % Control ABUTH): 90%
Nc1c(Cl)c(Oc2ccccc2)nc(C(=O)O)c1Cl [Compound 54, 4-Amino-3,5-dichloro-6-phenoxypyridine-2-carboxylic acid] |  |  |  | 158 to 160 °C | 0 | 100 | 40 | pest or weed control at 280 ppm [4, 10]: 41%; pest or weed control at 280 ppm [5, 11]: 10%; pest or weed control at 280 ppm [6, 12]: 50%
Cc1cccc(Oc2cc(N)c(Cl)c(C(=O)O)n2)c1 [Compound 52, 4-amino-3-chloro-6-(3-methylphenoxy)-pyridine-2-carboxylic acid] | 70 | 20 | 50 | 169 °C | 20 | 70 | 90 | 
Nc1c(Cl)c(C(=O)O)nc(Cl)c1C(F)(F)F [Compound 21, 4-Amino-3,6-dichloro-5-trifluoromethylpyridine-2-carboxylic acid] | 90 | 80 | 80 | 173 °C | 20 | 70 | 20 | 
CC(C)COc1nc(C(=O)O)c(Cl)c(N)c1Cl [Compound 56, 4-Amino-3,5-dichloro-6-(2-methylpropoxy)pyridine-2-carboxylic acid] | 0 | 0 | 40 | 104 to 106 °C | 30 | 85 | 20 | 
CCCCOCCOC(=O)c1nc(Cl)cc(N)c1Cl (hydrate or solvate) [Compound 10, butoxyethyl 4-amino-3,6-dichloropyridine-2-carboxylate] |  |  |  | 64 to 67 °C |  |  |  | 
COC(=O)c1nc(Cl)c([N+](=O)[O-])c(N)c1Cl [Compound 25, Methyl 4-amino-3,6-dichloro-5-nitropyridine-2-carboxylate] |  |  |  | 127 to 128 °C | 50 | 60 | 50 | 
Cc1c(Br)nc(C(=O)O)c(Cl)c1N=[N+]=[N-] [Compound 38, Methyl 4-azido-6-bromo-3-chloropyridine-2-carboxylic acid] |  |  |  | 84 to 86 °C |  |  |  | 
N,N-diacetyl 4-amino-3,6-dichloropyridine-2-carboxylate [Compound 13] |  |  |  |  |  |  |  | Post-emergent % Control STEME ([1]; rate 250 ppm): 100%; Post-emergent % Control XANST ([2]; rate 250 ppm): 95%; Post-emergent % Control POLCO ([3]; rate 250 ppm): 80%; % Control IPOHE ([4]; rate 560 ppm): 95%; % Control AMARE ([5]; rate 560 ppm): 100%; % Control ABUTH ([6]; rate 560 ppm): 95%

Source: US20010047099A1, “4-aminopicolinates and their use as herbicides” (priority 2000, published 2001)
